Assay results from patent publication US6127377A, “Vinca alkaloid antimitotic halogenated derivatives” (Adir et Compagnie, priority 1997, dated 2000).

Tested on: tubulin
Assay: inhibition of the polymerization of tubulin into microtubules, followed by changes in optical density (Weisenberg method)
Format: biochemical
Conditions: read-out: IC50, concentration of compound which brings about a 50% inhibition of the polymerization of tubulin into microtubules
Description: This property was confirmed by measuring the inhibition of the polymerization of tubulin into microtubules in the presence of the compounds of the invention, according to the method described by R. C. Weisenberg (Science 177, 1196-7, 1972). The results are expressed in terms of IC50, which corresponds to the concentration of compound which brings about a 50% inhibition of the polymerization. This phenomenon is readily monitored and quantified by means of the changes in optical density.

SMILES	IC50
CC[C@]12C=CCN3CC[C@@]4(c5cc([C@@]6(C(=O)OC)C[C@@H]7CC(C(C)Cl)CN(CCc8c6[nH]c6ccccc86)C7)c(OC)cc5N(C)[C@H]4[C@@](O)(C(=O)OC)[C@@H]1OC(C)=O)[C@@H]32 (stereo partly drawn) [Example 1, 20'-chloro-4'-deoxyvinblastine]	1990 nM
CC[C@]12C=CCN3CC[C@@]4(c5cc([C@@]6(C(=O)OC)C[C@H]7CN(CCc8c6[nH]c6ccccc86)CC(F)(C(C)Cl)C7)c(OC)cc5N(C)[C@H]4[C@@](O)(C(=O)OC)[C@@H]1OC(C)=O)[C@@H]32 (stereo partly drawn) [Example 3, 20'-chloro-4'-deoxy-4'-fluorovinblastine]	1540 nM
CCC1=C[C@@H]2CN(C1)Cc1c([nH]c3ccccc13)[C@@](C(=O)OC)(c1cc3c(cc1OC)N(C)[C@H]1[C@@](O)(C(=O)OC)[C@H](OC(C)=O)[C@]4(CC)C=CCN5CC[C@]31[C@@H]54)C2 [Vinorelbine, reference compound]	1700 nM
